Experiment [1] deals with Veronica persica. Description: greenhouse pre-emergence trial, percent damage vs untreated control 21 days after treatment. It counts as in vivo. As to conditions: VERPE.
The subject of experiment [2] is Alopecurus myosuroides. The experiment is described as above. It counts as in vivo. As to conditions: ALOMY.

Take `FC(F)(F)c1ccc(-c2nccc(Oc3cccc(C(F)(F)F)c3)n2)cc1` [Compound A, 4-(3-trifluoromethylphenoxy)-2-(4-trifluoromethylphenyl)-pyrimidine]: the “Compound A alone (% control)” value in experiment [1] (3.75 g/ha, Example 1A) was determined as 13%; in experiment [1] (3.75 g/ha, Example 2) it was 0%; in experiment [1] (7.5 g/ha, Example 1A), 33%; in experiment [1] (7.5 g/ha, Example 2), 23%; in experiment [1] (15 g/ha, Example 2) it was 60%; in experiment [2] (3.75 g/ha, Example 1A), 0%. In addition, the “Compound A alone (% control)” value in experiment [2] (3.75 g/ha, Example 3) worked out at 0%; in experiment [2] (7.5 g/ha, Example 1A), 5%; in experiment [2] (7.5 g/ha, Example 3), 0%.

The values are drawn from patent US6683027B2, “Herbicidal mixtures” (BASF Aktienegesellschaft, priority 2000, dated 2004).
